Biological target: Glycogen synthase kinase-3 beta (Homo sapiens, UniProt P49841)
Assay type: cell-based, Sf9
Description: Inhibition of GSK3beta (unknown origin) expressed in Sf9 cells using GS1 as substrate and [gamma32]ATP after 30 min by scinitllation counting

Chain of Glycogen synthase kinase-3 beta (P49841 whole entry): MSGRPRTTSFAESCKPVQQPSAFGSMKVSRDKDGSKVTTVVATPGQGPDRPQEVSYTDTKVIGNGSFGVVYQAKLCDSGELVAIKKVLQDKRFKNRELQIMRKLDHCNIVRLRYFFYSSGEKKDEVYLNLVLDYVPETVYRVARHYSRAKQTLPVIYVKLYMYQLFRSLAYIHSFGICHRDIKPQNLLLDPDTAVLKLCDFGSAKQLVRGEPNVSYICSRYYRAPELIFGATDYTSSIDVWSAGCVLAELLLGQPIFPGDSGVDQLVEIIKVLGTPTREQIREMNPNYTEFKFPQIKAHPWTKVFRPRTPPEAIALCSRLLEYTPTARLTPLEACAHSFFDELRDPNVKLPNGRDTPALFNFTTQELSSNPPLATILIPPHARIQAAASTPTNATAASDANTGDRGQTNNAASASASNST

Row | Structure (SMILES) | IC50 [nM] | Ki [nM]
1 | CN1CCN(c2cnc(NCCNc3ccc([N+](=O)[O-])c(N)n3)nc2-c2ccc(Cl)cc2Cl)C(=O)C1 | 3.98 | 
2 | O=C1NC(=O)C(c2cnc3cccnn23)=C1c1cn2c3c(cccc13)CN(C(=O)N1CCCCC1)CC2 [BISARYLMALEIMIDE 1] | 0.708 | 
3 | O=C1NC(=O)C(c2cncc3ccoc23)=C1c1cn2c3c(cccc13)CN(C(=O)N1CCOCC1)CC2 [BISARYLMALEIMIDE 2] | 0.794 | 
4 | CC(=O)NC1=NC(=O)/C(=C2\CCNC(=O)c3c2cc(Br)n3C(C)=O)N1 [HYMENIALDISINE 2] | 129 | 
5 | CC(=O)O/N=C1/C(=C2/C(=O)Nc3cc(Cl)c(Cl)cc32)Nc2ccccc21 [INDIRUBIN 1] | 3.98 | 
6 | O=C1Nc2ccc(Br)cc2/C1=C1/Nc2ccccc2/C1=N\O [INDIRUBIN 2] | 5.01 | 
7 | O=C1NC(=O)C2=C1c1cn(c3ccccc13)CCOCCOCCOCCn1cc2c2ccccc21 [INDOLYLYLMALEIMIDE 2] | 21.9 | 
8 | COc1ccc(Nc2nccc(-c3cnn4ncccc34)n2)cc1OC [PYRAZOLOPYRIDAZINE 2] |  | 12
9 | CN(C)CCNC(=O)c1ccc(/C=N/Nc2ncnc3c2cnn3-c2cccc3[nH]cnc23)cc1 [PYRAZOLOPYRIMIDINE 1] | 1.58 | 
